Results from patent US10723699B2 (Hyundai Pharm Co., Ltd., priority 2015, dated 2020).
Where two headings read alike, the source gives them in different places.

Biological target: T1, G protein-coupled receptor 119 (GPR-119) (Mesocricetus auratus, UniProt A0A1U8CD06)
T1 construct: hamster-derived β-cells containing G protein-coupled receptor 119 (GPR-119), HIT-T15 cells; host or cells: HIT-T15 (hamster pancreatic β-cells)
T1 sequence (A0A1U8CD06 1-334): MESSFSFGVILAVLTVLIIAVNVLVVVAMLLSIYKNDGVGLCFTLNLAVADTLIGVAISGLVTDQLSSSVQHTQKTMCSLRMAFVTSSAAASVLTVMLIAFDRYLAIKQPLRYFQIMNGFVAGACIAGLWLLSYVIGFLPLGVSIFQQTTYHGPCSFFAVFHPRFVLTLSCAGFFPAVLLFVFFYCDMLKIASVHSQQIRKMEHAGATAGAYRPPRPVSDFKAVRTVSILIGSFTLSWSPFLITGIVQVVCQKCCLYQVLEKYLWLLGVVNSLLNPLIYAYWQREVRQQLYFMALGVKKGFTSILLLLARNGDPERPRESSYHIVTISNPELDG
Assay: cAMP activity in HIT-T15 cells (cAMP dynamic kit, FRET)
Assay type: cell-based, hamster
Method in brief: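 Hamster HIT-T15 cells (60,000/well) were treated next day with compound at six concentrations, 0.0032–10 μM, for 1 h at 37° C. Cells were then lysed and cAMP measured by competitive HTRF immunoassay (D2-cAMP, cryptate anti-cAMP). Activity was derived as the change in FRET signal relative to DMSO.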

[1] = 1 hour at 37° C., six concentrations 0.0032 to 10 μM, read-out: EC50

SMILES	EC50 [1] [nM]	EC50 (Table 2, read-out: EC50 value) [nM]
CCc1cnc(N2CCC(COc3ccc(C4=CCC(C(=O)N5CCN(C)CC5)CC4)cc3F)CC2)nc1 (stereo not shown) [Example 428, (4-(4-((1-(5-ethylpyrimidin-2-yl)piperidin-4-yl)methoxy)-3-fluorophenyl)cyclohex-3-enyl)(4-methylpiperazin-1-yl)methanone]	70	
CC(C)(C)OC(=O)N1CCC(COc2ccc(C3=CCC(C(=O)N4CCC(C#N)CC4)CC3)nc2)CC1 (stereo not shown) [Example 340, tert-butyl 4-((6-(4-(4-cyanopiperidine-1-carbonyl)cyclohex-1-enyl)pyridin-3-yloxy)methyl)piperidine-1-carboxylate]	28	≤ 50
CC(C)c1noc(N2CCC(COc3ccc(C4=CCC(C(=O)N5CCC(N6CCCC6)CC5)CC4)cc3F)CC2)n1 (stereo not shown) [Example 336, (4-(3-fluoro-4-((1-(3-isopropyl-1,2,4-oxadiazol-5-yl)piperidin-4-yl)methoxy)phenyl)cyclohex-3-enyl)(4-(pyrrolidin-1-yl)piperidin-1-yl)methanone]	180	
CON=C1CCN(C(=O)C2CC=C(c3ccc(OCC4CCN(C(=O)OC(C)(C)C)CC4)cc3)CC2)CC1 (stereo not shown) [Example 270, tert-butyl 4-((4-(4-(4-(methoxyimino)piperidine-1-carbonyl)cyclohex-1-enyl)phenoxy)methyl)piperidine-1-carboxylate]		≤ 50
CCc1cnc(N2CCC(COc3ccc(C4=CCC(C(=O)N5CCC(O)CC5)CC4)cc3C#N)CC2)nc1 (stereo not shown) [Example 390, 2-((1-(5-ethylpyrimidin-2-yl)piperidin-4-yl)methoxy)-5-(4-(4-hydroxypiperidine-1-carbonyl)cyclohex-1-enyl)benzonitrile]	70	
CCc1cnc(N2CCC(COc3ccc(C4=CCC(C(=O)N5CCCC5)CC4)cc3C#N)CC2)nc1 (stereo not shown) [Example 386, 2-((1-(5-ethylpyrimidin-2-yl)piperidin-4-yl)methoxy)-5-(4-(pyrrolidine-1-carbonyl)cyclohex-1-enyl)benzonitrile]	64	
CCc1cnc(N2CCC(COc3ccc(C4=CCC(C(=O)N5CCC(C#N)CC5)CC4)c(F)c3)CC2)nc1 (stereo not shown) [Example 424, 1-(4-(4-((1-(5-ethylpyrimidin-2-yl)piperidin-4-yl)methoxy)-2-fluorophenyl)cyclohex-3-enecarbonyl)piperidine-4-carbonitrile]	21	≤ 50
CCc1cnc(N2CCC(COc3ccc(C4=CCC(C(=O)N5CCC(N6CCCCC6)CC5)CC4)cc3F)CC2)nc1 (stereo not shown) [Example 297, 1,4′-bipiperidin-1′-yl(4-(4-((1-(5-ethylpyrimidin-2-yl)piperidin-4-yl)methoxy)-3-fluorophenyl)cyclohex-3-enyl)methanone]	120	
CCC(F)(F)C(=O)N1CCC(COc2ccc(C3=CCC(C(=O)N4CCCC4)CC3)cc2F)CC1 (stereo not shown) [Example 436, 2,2-difluoro-1-(4-((2-fluoro-4-(4-(pyrrolidine-1-carbonyl)cyclohex-1-enyl)phenoxy)methyl)piperidin-1-yl)butan-1-one]	9.8	≤ 50
CCc1cnc(N2CCC(COc3ccc(C4=CCC(C(=O)N5CCCCC5)CC4)cc3F)CC2)nc1 (stereo not shown) [Example 292, (4-(4-((1-(5-ethylpyrimidin-2-yl)piperidin-4-yl)methoxy)-3-fluorophenyl)cyclohex-3-enyl)(piperidin-1-yl)methanone]	12	≤ 50
CC(C)(C)OC(=O)N1CCC(COc2ccc(C3=CCC(C(=O)N4CCOCC4)CC3)cc2F)CC1 (single isomer, unassigned; (-)) [Example 443, (−)-tert-butyl 4-((2-fluoro-4-(4-(morpholine-4-carbonyl)cyclohex-1-enyl)phenoxy)methyl)piperidine-1-carboxylate]	38	
CCc1cnc(N2CCC(COc3ccc(C4=CCC(C(=O)N(C)CCO)CC4)cc3F)CC2)nc1 (stereo not shown) [Example 359, 4-(4-((1-(5-ethylpyrimidin-2-yl)piperidin-4-yl)methoxy)-3-fluorophenyl)-N-(2-hydroxyethyl)-N-methylcyclohex-3-enecarboxamide]	14	≤ 50
CC(C)c1noc(N2CCC(COc3ccc(C4=CCC(C(=O)N5CCCC5)CC4)cn3)CC2)n1 (stereo not shown) [Example 315, (4-(6-((1-(3-isopropyl-1,2,4-oxadiazol-5-yl)piperidin-4-yl)methoxy)pyridin-3-yl)cyclohex-3-enyl)(pyrrolidin-1-yl)methanone]	68	

Next, values leading:

EC50 [1] [nM]	EC50 (Table 2, read-out: EC50 value) [nM]	SMILES
5.9	≤ 50	CCC(F)(F)C(=O)N1CCC(COc2ccc(C3=CCC(C(=O)N4CCOCC4)CC3)cc2F)CC1 (stereo not shown) [Example 439, 2,2-difluoro-1-(4-((2-fluoro-4-(4-(morpholine-4-carbonyl)cyclohex-1-enyl)phenoxy)methyl)piperidin-1-yl)butan-1-one]
6.7	≤ 50	CC(C)c1noc(N2CCC(COc3ccc(C4=CCC(C(=O)N5CCCCC5)CC4)cc3F)CC2)n1 (stereo not shown) [Example 332, (4-(3-fluoro-4-((1-(3-isopropyl-1,2,4-oxadiazol-5-yl)piperidin-4-yl)methoxy)phenyl)cyclohex-3-enyl)(piperidin-1-yl)methanone]
	≤ 50	CCc1cnc(N2CCC(COc3ccc(C4=CCC(C(=O)N5CCN(CCO)CC5)CC4)cc3)CC2)nc1 (stereo not shown) [Example 172, (4-(4-((1-(5-ethylpyrimidin-2-yl)piperidin-4-yl)methoxy)phenyl)cyclohex-3-enyl)(4-(2-hydroxyethyl)piperazin-1-yl)methanone]
110		CC(C)c1noc(N2CCC(COc3ccc(C4=CCC(C(=O)NC5CC5)CC4)cc3F)CC2)n1 (stereo not shown) [Example 363, N-cyclopropyl-4-(3-fluoro-4-((1-(3-isopropyl-1,2,4-oxadiazol-5-yl)piperidin-4-yl)methoxy)phenyl)cyclohex-3-enecarboxamide]
23	≤ 50	CCc1cnc(N2CCC(COc3ccc(C4=CCC(C(=O)N(CC)CCO)CC4)c(F)c3)CC2)nc1 (stereo not shown) [Example 438, N-ethyl-4-(4-((1-(5-ethylpyrimidin-2-yl)piperidin-4-yl)methoxy)-2-fluorophenyl)-N-(2-hydroxyethyl)cyclohex-3-enecarboxamide]
75		CCc1cnc(N2CCC(COc3ccc(C4=CCC(C(=O)N5CCCC5)CC4)cc3C)CC2)nc1 (stereo not shown) [Example 416, (4-(4-((1-(5-ethylpyrimidin-2-yl)piperidin-4-yl)methoxy)-3-methylphenyl)cyclohex-3-enyl)(pyrrolidin-1-yl)methanone]
51		CCc1cnc(N2CCC(COc3ccc(C4=CCC(C(=O)N5CCOCC5)CC4)cc3C#N)CC2)nc1 (stereo not shown) [Example 388, 2-((1-(5-ethylpyrimidin-2-yl)piperidin-4-yl)methoxy)-5-(4-(morpholine-4-carbonyl)cyclohex-1-enyl)benzonitrile]
15	≤ 50	CCc1cnc(N2CCC(COc3ccc(C4=CCC(C(=O)N5CCC(F)(F)C5)CC4)c(F)c3)CC2)nc1 (stereo not shown) [Example 454, (3,3-difluoropyrrolidin-1-yl)(4-(4-((1-(5-ethylpyrimidin-2-yl)piperidin-4-yl)methoxy)-2-fluorophenyl)cyclohex-3-enyl)methanone]
110		CC(C)c1noc(N2CCC(COc3ccc(C4=CCC(C(=O)N5CCNCC5)CC4)cc3F)CC2)n1 (stereo not shown) [Example 381, (4-(3-fluoro-4-((1-(3-isopropyl-1,2,4-oxadiazol-5-yl)piperidin-4-yl)methoxy)phenyl)cyclohex-3-enyl)(piperazin-1-yl)methanone]
